Like-named read-outs stand apart in the source and are kept apart here.
Legend:
[1] = plasma, steady-state; cited from earlier work
[2] = in vivo; cited from earlier work
[3] = XALKORI 250 mg twice daily, cited from earlier work
[4] = cited from earlier work
[5] = tested on: A549 human lung cancer cell line; test: CellTiter 96 Aqueous One relative growth assay; type: cell-based; details: for cell viability (FIG. 84) / cell viability (FIG. 90): ARQ-197 up to 3 μM; for relative growth percentage: BMS-303141 20 μM, alone or both
[6] = tested on: H1650 human lung cancer cell line; test: CellTiter 96 Aqueous One relative growth assay; type: cell-based; details: for cell viability (FIG. 85) / cell viability (FIG. 91): ARQ-197 up to 3 μM; for relative growth percentage: BMS-303141 20 μM, alone or both
[7] = tested on: SW48 human colon cancer cell line; test: CellTiter 96 Aqueous One relative growth assay; type: cell-based; details: for cell viability (FIG. 87): ARQ-197 up to 3 μM, Atorvastatin up to 40 μM
From the text: The SW48 human colon cancer cell line was procured from ATCC (American Type Culture Collection, Manassas, Va.).

[8] = multiple species; cited from earlier work
[9] = tested on: CaCo-2; details: cited from earlier work
[10] = cited from earlier work; remark: listed apart in the source
[11] = tested on: HCT116 human colon cancer cell line; test: CellTiter 96 Aqueous One relative growth assay; details: for cell viability (FIG. 86): ARQ-197 up to 3 μM
[12] = in vivo, cited from earlier work
[13] = cited from earlier work; remark: listed apart in the source
[14] = tested on: Hep G2 cells; details: dose-related; cited from earlier work
[15] = rats; cited from earlier work
[16] = biological target: T1, ATP citrate lyase (Homo sapiens, UniProt P53396); details: cited from earlier work
T1 sequence (P53396 1-1101): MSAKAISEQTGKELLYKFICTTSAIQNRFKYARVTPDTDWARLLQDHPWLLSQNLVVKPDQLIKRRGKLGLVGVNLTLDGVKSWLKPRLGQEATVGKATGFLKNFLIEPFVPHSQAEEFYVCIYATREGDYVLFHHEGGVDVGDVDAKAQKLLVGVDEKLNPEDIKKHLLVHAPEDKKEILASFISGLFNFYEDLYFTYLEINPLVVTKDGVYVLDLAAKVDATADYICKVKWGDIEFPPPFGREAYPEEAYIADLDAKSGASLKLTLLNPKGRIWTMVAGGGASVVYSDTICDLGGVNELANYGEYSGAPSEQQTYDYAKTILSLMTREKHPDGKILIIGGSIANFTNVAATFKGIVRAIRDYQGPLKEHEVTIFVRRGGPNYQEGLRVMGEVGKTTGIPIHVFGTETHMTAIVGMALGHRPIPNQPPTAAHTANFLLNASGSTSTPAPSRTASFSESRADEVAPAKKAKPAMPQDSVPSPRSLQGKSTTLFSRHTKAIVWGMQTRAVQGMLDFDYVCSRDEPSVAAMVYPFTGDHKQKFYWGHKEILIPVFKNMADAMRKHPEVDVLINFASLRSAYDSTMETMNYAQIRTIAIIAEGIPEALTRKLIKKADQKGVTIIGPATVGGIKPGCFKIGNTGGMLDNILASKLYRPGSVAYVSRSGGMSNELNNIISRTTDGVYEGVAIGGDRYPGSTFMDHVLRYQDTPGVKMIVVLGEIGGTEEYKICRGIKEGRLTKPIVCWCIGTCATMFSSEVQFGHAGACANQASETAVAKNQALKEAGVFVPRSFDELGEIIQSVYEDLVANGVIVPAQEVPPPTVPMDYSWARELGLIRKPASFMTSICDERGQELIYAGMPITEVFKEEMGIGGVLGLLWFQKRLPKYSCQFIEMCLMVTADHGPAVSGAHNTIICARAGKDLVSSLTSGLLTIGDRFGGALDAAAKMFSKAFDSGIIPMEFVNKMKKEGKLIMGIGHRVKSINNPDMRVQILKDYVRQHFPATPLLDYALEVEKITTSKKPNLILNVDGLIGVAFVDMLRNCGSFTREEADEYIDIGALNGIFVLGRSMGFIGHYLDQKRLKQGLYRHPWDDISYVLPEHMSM

[17] = single 250 mg radiolabeled dose, healthy subjects
[18] = single 250 mg radiolabeled dose
[19] = Sorafenib up to 5 μM, Atorvastatin up to 40 μM
[20] = BMS-303141 up to 20 μM, Sorafenib 3 μM and 5 μM

[O-][n+]1ccccc1 [pyridine N-oxide]
share of the circulating analytes in plasma at steady-state [1]: 9-16%

CCC(C)(C)C(=O)O[C@H]1C[C@@H](C)C=C2C=C[C@H](C)[C@H](CC[C@@H]3C[C@@H](O)CC(=O)O3)[C@H]21 [Simvastatin, [(1S,3R,7S,8S,8aR)-8-[2-[(2R,4R)-4-hydroxy-6-oxooxan-2-yl]ethyl]-3,7-dimethyl-1,2,3,7,8,8a-hexahydronaphthalen-1-yl]2,2-dimethylbutanoate]
Half-life [2]: 3 h

C[C@@H](Oc1cc(-c2cnn(C3CCNCC3)c2)cnc1N)c1c(Cl)ccc(F)c1Cl [Crizotinib, 3-[(1R)-1-(2,6-dichloro-3-fluorophenyl)ethoxy]-5-(1-piperidin-4-ylpyrazol-4-yl)pyridin-2-amine]
patients with QTcF greater than or equal to 500 msec ([3]; 16 of 1167 patients): 1.4%
patients with increase from baseline QTcF greater than or equal to 60 msec ([3]; 51 of 1136 patients): 4.4%
time to steady state ([4]; 250 mg twice daily): ≤ 15 days
reduction of AUCinf by a high-fat meal ([4]; high-fat meal): approximately 14%
reduction of Cmax by a high-fat meal ([4]; high-fat meal): approximately 14%
mean absolute bioavailability ([4]; single 250 mg oral dose): 43%
mean apparent clearance (CL/F) ([4]; single 250 mg oral dose): 100 L/h
administered dose recovered in feces [4, 17]: 63%
administered dose recovered in urine [4, 17]: 22%
unchanged crizotinib in feces, of administered dose [4, 18]: approximately 53%
unchanged crizotinib in urine, of administered dose [4, 18]: ~2.3%
mean apparent clearance (CL/F) ([4]; steady state after 250 mg twice daily): 60 L/h

O=C1NC(=O)[C@@H](c2cn3c4c(cccc24)CCC3)[C@@H]1c1c[nH]c2ccccc12 [ARQ-197, (3R,4R)-3-(5,6-dihydro-4H-pyrrolo[3,2,1-ij]quinolin-1-yl)-4-(1H-indol-3-yl)pyrrolidine-2,5-dione]
cell viability (FIG. 84) ([5]; Atorvastatin up to 40 μM): a decrease
cell viability (FIG. 90) ([5]; BMS-303141 up to 20 μM): minor decrease
cell viability (FIG. 85) ([6]; Atorvastatin up to 40 μM): negligible effect
cell viability (FIG. 91) ([6]; BMS-303141 up to 20 μM): minor decrease
cell viability (FIG. 87) [7]: most pronounced
oral bioavailability [8]: greater than 20%
permeability (CaCo-2 flux data) [9]: good permeability
mean terminal half-life (t1/2), tivantinib in plasma [10]: 11.7 h
median time to maximal concentration (tmax), tivantinib in plasma [10]: 4 h
cell viability (FIG. 86) ([11]; Atorvastatin up to 40 μM): small decrease

CC(C)c1c(C(=O)Nc2ccccc2)c(-c2ccccc2)c(-c2ccc(F)cc2)n1CC[C@@H](O)C[C@@H](O)CC(=O)O [Atorvastatin, (3R,5R)-7-[2-(4-fluorophenyl)-3-phenyl-4-(phenylcarbamoyl)-5-propan-2-ylpyrrol-1-yl]-3,5-dihydroxyheptanoic acid]
cell viability (FIG. 84) ([5]; Atorvastatin up to 40 μM): a decrease
cell viability (FIG. 71) [5, 19]: negligible decrease
cell viability (FIG. 85) ([6]; Atorvastatin up to 40 μM): negligible effect
cell viability (FIG. 72) [6, 19]: negligible decrease
cell viability (FIG. 87) [7]: a decrease
cell viability (FIG. 75) ([7]; Sorafenib up to 5 μM, Atorvastatin up to 10 μM): negligible effect
orally administered dose recovered in urine ([12]; po): Less than 2%
circulating inhibitory activity for HMG-CoA reductase attributed to active metabolites [12]: Approximately 70%
systemic availability of the HMG-CoA reductase inhibitory activity [12]: approximately 30%
cell viability (FIG. 86) ([11]; Atorvastatin up to 40 μM): small decrease
cell viability (FIG. 73) [11, 19]: insignificant decrease

Cn1cncc1[C@@](N)(c1ccc(Cl)cc1)c1ccc2c(c1)c(-c1cccc(Cl)c1)cc(=O)n2C [Tipifamib, 6-[(R)-amino-(4-chlorophenyl)-(3-methylimidazol-4-yl)methyl]-4-(3-chlorophenyl)-1-methylquinolin-2-one]
absolute oral bioavailability ([13]; healthy volunteers, fed conditions): 34%
Half-life ([13]; in vivo): 2 to 5 h
urinary excretion of unchanged drug or its metabolites, of total dose ([13]; in vivo): 13.7%
time to maximum plasma concentrations ([13]; oral administration): two to three
decrease in clearance ([13]; two-fold increase in bilirubin concentration): 6.9%
decrease in relative growth ([11]; Tipifamib 3 μM, Crizotinib 8 μM, alone or combined, about 66 hours): ~22%

COc1ccc(-c2ccccc2)cc1NS(=O)(=O)c1cc(Cl)cc(Cl)c1O [BMS-303141, 3,5-Dichloro-2-hydroxy-N-(4-methoxy-[1,1′-biphenyl]-3-yl)-benzenesulfonamide]
relative growth percentage ([5]; ARQ-197 3 μM, about 66 hours): about 105%
cell viability (FIG. 90) ([5]; BMS-303141 up to 20 μM): minor decrease
cell viability (FIG. 78) [5, 20]: negligible decrease
relative growth percentage ([5]; Sorafenib 5 μM, about 68 hours): about 105%
relative growth percentage ([6]; ARQ-197 3 μM, about 66 hours): about 76%
cell viability (FIG. 91) ([6]; BMS-303141 up to 20 μM): minor decrease
cell viability (FIG. 79) [6, 20]: minor decrease
relative growth percentage ([6]; Sorafenib 5 μM, about 68 hours): about 76%
cell viability (FIG. 81) [7, 20]: minimal decrease
relative growth percentage ([7]; Sorafenib 5 μM, BMS-303141 20 μM, alone or both, about 68 hours): about 78%
cell viability (FIG. 80) [11, 20]: a decrease
relative growth percentage ([11]; Sorafenib 5 μM, BMS-303141 20 μM, alone or both, about 66 hours): about 54%

O=C(O)C[C@](O)(C[C@@H](O)CCCCCCc1ccc(Cl)cc1Cl)C(=O)O [SB-204990, (2R)-2-[(2S)-8-(2,4-dichlorophenyl)-2-hydroxyoctyl]-2-hydroxybutanedioic Acid]
inhibition of cholesterol synthesis [14]: up to 91%
inhibition of fatty acid synthesis [14]: ≤ 82%
inhibition of cholesterol synthesis [15]: 76%
inhibition of fatty acid synthesis [15]: 39%
direct inhibition of ATP citrate-lyase [16]: does not inhibit

O=C(O)C[C@@](O)(C[C@@H](O)CCCCCCc1ccc(Cl)cc1Cl)C(=O)O [SB-201076, (2S)-2-[(2S)-8-(2,4-dichlorophenyl)-2-hydroxyoctyl]-2-hydroxybutanedioic Acid]
Ki ([16]; competitive inhibitor, humans): 1000 nM
